From the NIST ThermoML archive (doi:10.1021/je100423n)

Assay: molar heat capacity at constant pressure
Settings: 101.33 kPa, Crystal

Cn1cc[n+](CCCS(=O)(=O)[O-])c1 [3-(1-methyl-1H-imidazolium-3-yl)propane-1-sulfonate]
Settings | molar heat capacity at constant pressure [J/K/mol]
235.92 K | 184.74
237.85 K | 185.76
239.79 K | 186.01
242.05 K | 187.95
244.34 K | 187.83
246.29 K | 188.35
248.25 K | 190.3
250.19 K | 193.13
252.14 K | 194.47
254.07 K | 195.68
255.99 K | 196.3
257.92 K | 197.35
259.83 K | 198.68
261.74 K | 199.57
263.64 K | 200.05
265.55 K | 201.61
267.43 K | 202.34
269.32 K | 203.12
271.3 K | 205.52
273.27 K | 206.92
275.24 K | 208.19
277.3 K | 209.38
279.36 K | 210.92
281.42 K | 212.37
283.48 K | 214.25
285.52 K | 216.3
287.56 K | 218.37
289.55 K | 220.99
293.53 K | 222.83
295.51 K | 223.55
297.5 K | 224.52
299.48 K | 225.32
301.46 K | 225.86
303.43 K | 227.02
305.4 K | 226.03
307.36 K | 230.37
309.31 K | 235.18
311.27 K | 235.45
313.22 K | 236.03
315.16 K | 234.76
317.1 K | 236.03
319.02 K | 238.01
320.95 K | 239.81
322.87 K | 240.52
324.78 K | 243.51
326.69 K | 246.23
328.59 K | 244.95
330.48 K | 246.48
332.37 K | 249.83
334.35 K | 249.15
336.32 K | 251.01
338.27 K | 250.4
340.28 K | 254.4
342.23 K | 256.8
344.09 K | 255.82
345.86 K | 260.16
347.69 K | 257.32
349.6 K | 262.66
351.56 K | 261.97
353.54 K | 259.52
355.49 K | 263.89
357.41 K | 266.15
359.38 K | 268.15
361.39 K | 270.9
363.37 K | 269.56
365.32 K | 267.19
367.26 K | 270.08
369.16 K | 275.79
371.1 K | 275.4
373.06 K | 275.42
375 K | 277.14
376.96 K | 279.35
378.97 K | 280.38
380.96 K | 281.24
383.24 K | 283.27
385.55 K | 285.76
387.47 K | 284.6
389.43 K | 285.05
391.54 K | 286.7
393.53 K | 288.42
395.46 K | 290.84
